What is called IC50 is the concentration needed to halve the response being measured.

What all share (format): cell-based
Assay [1] concerns KMM-1. Description: MTT growth inhibition (in vitro cytotoxicity), KMM-1. The conditions noted are these: Homo sapiens, average IC50. As for the experimental part:
(§1) The following Table sets forth the IC50 values of harmaline and quinoline analogs against 23 human cancer cell lines. Growth inhibition effects (in vitro cytotoxicity) on pancreatic, endometrial, breast, lung, ovarian, renal, cervical, lymphoma, and myeloma cancer cells were determined by MTT assays and represented by average IC50 values. In the Table, the results are given in terms of μM, and nd=not determined.

Assay [2] has as its system DoHH-2. Put plainly: MTT growth inhibition (in vitro cytotoxicity), DoHH-2. The following applies: Homo sapiens, average IC50. As for the experimental part: as §1
In assay [3] the test system is L363. Description: MTT growth inhibition (in vitro cytotoxicity), L363. The following applies: Homo sapiens, L-363, average IC50. On the procedure: as §1
In assay [4] the test system is MIA Paca-2. Put plainly: MTT growth inhibition (in vitro cytotoxicity), MIA Paca-2. The conditions noted are these: Homo sapiens, average IC50. As for the experimental part:
as §1

Assay [5] has as its system A2780. Description: MTT growth inhibition (in vitro cytotoxicity), A2780. The conditions noted are these: Homo sapiens, average IC50. As for the experimental part: as §1
The subject of assay [6] is human cancer cell lines. Put plainly: Cancer cell growth inhibition, summary over cell lines. The conditions noted are these: read-out: cancer cell growth inhibition (IC50). On the procedure: as §1
In assay [7] the test system is FaDu. Put plainly: MTT growth inhibition (in vitro cytotoxicity), FaDu. The conditions noted are these: Homo sapiens, average IC50. As for the experimental part: as §1
For assay [8], the system named is JIM1. Description: MTT growth inhibition (in vitro cytotoxicity), JIM1. The following applies: Homo sapiens, average IC50. On the procedure: as §1
In assay [9] the test system is ASPC-1. Put plainly: MTT growth inhibition (in vitro cytotoxicity), ASPC-1. The conditions noted are these: Homo sapiens, ASPC1, average IC50. On the procedure: as §1
The subject of assay [10] is A2780CP. Put plainly: MTT growth inhibition (in vitro cytotoxicity), A2780CP. The following applies: Homo sapiens, A2780C/P, average IC50. As for the experimental part:
as §1

The subject of assay [11] is H1975 (EGFR mut). Put plainly: MTT growth inhibition (in vitro cytotoxicity), H1975 (EGFR mut). The conditions noted are these: Homo sapiens, NCI-H1975, average IC50. On the procedure: as §1
Assay [12] deals with A498. Put plainly: MTT growth inhibition (in vitro cytotoxicity), A498. The following applies: Homo sapiens, average IC50. On the procedure:
as §1

The subject of assay [13] is RPMI-8226. Put plainly: MTT growth inhibition (in vitro cytotoxicity), RPMI-8226. The following applies: Homo sapiens, average IC50. As for the experimental part: as §1
Assay [14] relates to MDA-MB-468. Put plainly: MTT growth inhibition (in vitro cytotoxicity), MDA-MB-468. The conditions noted are these: Homo sapiens, average IC50. As for the experimental part: as §1
Assay [15] relates to OCI-LY3. Put plainly: MTT growth inhibition (in vitro cytotoxicity), OCI-LY3. The following applies: Homo sapiens, average IC50. As for the experimental part: as §1
Assay [16] deals with BxPC-3. Put plainly: MTT growth inhibition (in vitro cytotoxicity), BxPC-3. The following applies: Homo sapiens, average IC50. As for the experimental part: as §1
The test system of assay [17] is MDA-MB-231. Description: MTT growth inhibition (in vitro cytotoxicity), MDA-MB-231. The conditions noted are these: Homo sapiens, average IC50. On the procedure:
as §1

In assay [18] the test system is SiHA. Put plainly: MTT growth inhibition (in vitro cytotoxicity), SiHA. The conditions noted are these: Homo sapiens, average IC50. On the procedure: as §1
Assay [19] has as its system AN3CA. Put plainly: MTT growth inhibition (in vitro cytotoxicity), AN3CA. The conditions noted are these: Homo sapiens, AN3-CA, average IC50. As for the experimental part: as §1
The test system of assay [20] is MOLP-8. Description: MTT growth inhibition (in vitro cytotoxicity), MOLP-8. The following applies: Homo sapiens, average IC50. On the procedure:
as §1

Assay [21] has as its system HEC-1a. Put plainly: MTT growth inhibition (in vitro cytotoxicity), HEC-1a. The conditions noted are these: Homo sapiens, average IC50. As for the experimental part:
as §1

Assay [22] deals with H1650(EGFR mut). Description: MTT growth inhibition (in vitro cytotoxicity), H1650(EGFR mut). The conditions noted are these: Homo sapiens, NCI-H1650, average IC50. As for the experimental part: as §1
Assay [23] has as its system HCC70. Description: MTT growth inhibition (in vitro cytotoxicity), HCC70. The conditions noted are these: Homo sapiens, average IC50. As for the experimental part:
as §1

Assay [24] has as its system KMS-34. Put plainly: MTT growth inhibition (in vitro cytotoxicity), KMS-34. The conditions noted are these: Homo sapiens, average IC50. On the procedure: as §1

Molecules are shown by their SMILES. Like-named read-outs stand apart in the source and are kept apart here.

Take `COc1ccc2c3c([nH]c2c1)C(CC(CC1=NCCc2c1[nH]c1cc(OC)ccc21)c1ccccc1)=NCC3` [Compound 6, 1,1′-(2-phenylpropane-1,3-diyl)bis(7-methoxy-4,9-dihydro-3H-pyrido[3,4-b]indole)]: the concentration for half-maximal inhibition (IC50) in assay [1] was 1.91 µM; in assay [2], 1.98 µM; in [3], 1.4 µM; in [4] it was 1.85 µM; in assay [5] it was 2.95 µM; in assay [6] (cell lines not specified), 4 to 7 µM. In addition, the IC50 came out at 1.58 µM in assay [7], 2.22 µM in assay [8] and 2.08 µM in [9].

As for `COc1ccc2[nH]c3c(c2c1)CCN=C3CCCCC1=NCCc2c1[nH]c1ccc(OC)cc21` [Compound 9, 1,4-bis(6-methoxy-4,9-dihydro-3H-pyrido[3,4-b]indol-1-yl)butane], the half-maximal inhibitory concentration (IC50) in assay [1] stood at 12.2 µM; in assay [2] it was 6.48 µM; in assay [10], 17.8 µM; in assay [11], 19.1 µM; in [12] it was 19.2 µM; in assay [3] it was 8.34 µM. Moreover, the IC50 was determined as 5.54 µM in [13]; 7.09 µM in assay [14]; 6.99 µM in [15]; 6.58 µM in assay [4]; 10.7 µM in assay [16]; 11.6 µM in assay [5]. Besides, the IC50 came to 19.4 µM in assay [17]; 19.7 µM in assay [18]; 20.7 µM in [19]; 3.68 µM in [20]; 6.82 µM in assay [7]; 20.7 µM in assay [21]. Further, the IC50 in [8] is 21.1 µM; in assay [22] it was 15.1 µM; in [23] it was 11.9 µM; in assay [24] it was 15.1 µM; in assay [9], 20.2 µM.

`COc1ccc2c3c([nH]c2c1)C(CC(CC1NCCc2c1[nH]c1cc(OC)ccc21)c1ccc(O)c(OC)c1)NCC3` (centres unmarked) [Compound 10, 4-(1,3-bis(7-methoxy-2,3,4,9-tetrahydro-1H-pyrido[3,4-b]indol-1-yl)propan-2-yl)-2-methoxyphenol]: the IC50 worked out at 2.53 µM in [1]; 2.24 µM in [2]; 2.17 µM in assay [3]; 2.53 µM in assay [4]; 6.14 µM in [5]; 2.61 µM in assay [7]. In addition, the figures for the 50% inhibitory concentration (IC50) in assay [8] and in assay [9] were 2.27 µM and 4.62 µM, respectively.

With `COc1ccc2c3c([nH]c2c1)C(CC(CC1NCCc2c1[nH]c1cc(OC)ccc21)c1ccccc1)NCC3` (centres unmarked) [Compound 11, 1,1′-(2-phenylpropane-1,3-diyl)bis(7-methoxy-2,3,4,9-tetrahydro-1H-pyrido[3,4-b]indole)], the 50% inhibitory concentration (IC50) is 2.05 µM in [1]; 2.31 µM in assay [2]; 1.92 µM in assay [3]; 2.25 µM in assay [4]; 3.4 µM in assay [5]; 2 to 4 µM in [6] (cell lines not specified). The results for the IC50 in [7], in assay [8] and in assay [9] were 2.22 µM, 2.42 µM and 2.4 µM, respectively.

Take `COc1cc(C(Cc2nccc3ccccc23)Cc2nccc3ccccc23)ccc1O` [Compound 13, 4-(1,3-di(isoquinolin-1-yl)propan-2-yl)-2-methoxyphenol]: the IC50 in assay [1] is 14.8 µM; in [2], 19.5 µM; in [10] it was 25.1 µM; in [11] it was 42.2 µM; in [12] it was 38.5 µM; in [3] it was 29.2 µM. Further, the half-inhibitory concentration (IC50) turned out to be 18 µM in assay [13]; 19.6 µM in [14]; 36.7 µM in assay [15]; 19.7 µM in assay [4]; 20.1 µM in assay [16]; 27.2 µM in [5]. The IC50 in assay [17] was determined as 28.2 µM; in [18], 45.2 µM; in assay [19], 19.5 µM; in assay [20], 9.71 µM; in assay [7], 33.6 µM; in assay [21], 39.8 µM. For the same compound, the IC50 in [8] stood at 29.2 µM; in assay [22], 38.1 µM; in [23], 37.2 µM; in [24], 11.8 µM; in assay [9] it was 49 µM.

For `COc1cc(C(Cc2ccc3ccccc3n2)Cc2ccc3ccccc3n2)ccc1O` [Compound 16, 4-(1,3-di(quinolin-2-yl)propan-2-yl)-2-methoxyphenol], the half-maximal inhibitory concentration (IC50) in assay [1] amounted to 17 µM; in [2] it was 14.8 µM; in assay [10], 22.3 µM; in assay [11] it was 58.9 µM; in assay [12], 81.3 µM; in assay [3], 29.5 µM. Moreover, the IC50 turned out to be 15.2 µM in assay [13]; 31.6 µM in assay [14]; 77.5 µM in assay [15]; 24.5 µM in [4]; 19.5 µM in assay [16]; 29.7 µM in assay [5]. Moreover, the IC50 in assay [17] amounted to 31.6 µM; in assay [18] it was 84.3 µM; in assay [19], 19.7 µM; in assay [20] it was 16 µM; in assay [7], 49.2 µM; in assay [21] it was 67.7 µM. Moreover, the IC50 in assay [8] was determined as 35.4 µM; in assay [22], 51 µM; in [23] it was 35.2 µM; in [24], 14.8 µM; in assay [9] it was 94.6 µM.

Turning to `c1ccc(C(Cc2ccc3ccccc3n2)Cc2ccc3ccccc3n2)cc1` [Compound 17, 2,2′-(2-phenylpropane-1,3-diyl)diquinoline], the half-maximal inhibitory concentration (IC50) worked out at 7.99 µM in [1]; 6.9 µM in assay [2]; 9 µM in assay [10]; 30.1 µM in assay [11]; 21.9 µM in assay [12]; 7.99 µM in assay [3]. Also, the IC50 in assay [13] worked out at 7.92 µM; in [14] it was 25.8 µM; in [15], 23.8 µM; in assay [4], 13.3 µM; in [16], 7.64 µM; in assay [5] it was 13.3 µM. The IC50 in [17] stood at 14.5 µM; in assay [18], 23.5 µM; in assay [19], 9.35 µM; in [20], 6.56 µM; in assay [7] it was 18.6 µM; in [21], 25.4 µM. Also, the IC50 in assay [8] is 11 µM; in [22], 24.6 µM; in assay [23] it was 17.2 µM; in assay [24] it was 7.85 µM; in assay [9] it was 28.7 µM.

Consider `COc1ccc2nc(CC(Cc3ccc4cc(OC)ccc4n3)c3ccccc3)ccc2c1` [Compound 18, 2,2′-(2-phenylpropane-1,3-diyl)bis(6-methoxyquinoline)], for which the 50% inhibitory concentration (IC50) was 14.8 µM in assay [1]; 14.3 µM in assay [2]; 26.6 µM in [10]; greater than 100 µM in [11]; greater than 100 µM in [12]; 17.4 µM in [3]. Moreover, the IC50 was 17.8 µM in assay [13]; greater than 100 µM in assay [14]; 42.2 µM in [15]; 21.9 µM in assay [4]; 25.1 µM in assay [16]; 25.6 µM in assay [5]. In addition, the IC50 is greater than 100 µM in assay [17]; greater than 100 µM in assay [18]; 41.8 µM in assay [19]; 15 µM in assay [20]; 30.3 µM in [7]; 37.6 µM in assay [21]. The IC50 is 31.7 µM in [8]; 48.5 µM in assay [22]; greater than 100 µM in assay [23]; 17.2 µM in [24]; greater than 100 µM in assay [9].

With `COc1ccc2c3c([nH]c2c1)C(C)=NCC3` [harmaline, reference compound], the IC50 in [6] came to 25 µM.

For the compound `COc1cc(C=O)ccc1O` [vanillin, reference compound], the IC50 in assay [6] (cell lines not specified) worked out at 40 µM.

For the origin of these results see patent US10947253B2, “Fused polycyclic dimers” (Ankh Life Sciences Limited, priority 2019, dated 2021).
